This passage reports IC50 results from ChEMBL document CHEMBL1158717, “A cytotoxic carotenoid from the marine sponge Prianos osiros” (J Nat Prod, 2005).

Values after ≈ are worked out from the molar mass of the structure shown.

The experiment relates to HCT-116. Put plainly: Cytotoxicity against human HCT116 after 72 hrs by MTS assay. It is filed as functional, cell-based. Particulars: HCT-116, 72 h. For orientation: Formazan colour is commonly taken as a measure of viable cells.

One may read the IC50 as the concentration needed to halve the response being measured. Take `CC1=C(C#C/C(=C/C=C/C(C)=C/C=C/C=C(C)/C=C/C=C(\C)C(=O)/C=C2\C(C)(C)C[C@H](O)C[C@@]2(C)O)CO)C(C)(C)C[C@H](O)C1`: the IC50 turned out to be 4.38 µg/mL (≈ 7.12 µM).
